Read-outs that look alike come from different tables or passages of the source.
Experiments:
Format in all cases: cell-based
MDA-MB-231 [1] = assay: MTT assay of cellular proliferation; conditions: Homo sapiens; MDA-MB-231, MTT, 50% inhibition of cellular proliferation
Protocol: (§1) Six lung cancer cell lines (NCI-H23, NCI-H460, NCI-H596, NCI-H2170, Calu-6 and A549), two colon cancer cell lines (HCT116 and SW460), one breast cancer cell line MDA-MB-231, one gastric cancer cell line NCI-N87, one prostate cancer cell line DU145, one cervical cancer cell line Hela, and one glioblastoma cell line T98G were obtained from ATCC. The T2 HCC cell line was derived from a mouse liver cancer model initiated by a transgene of MYC. All cell lines were cultured in DMEM (Gibco, Cleveland, TN, USA) supplemented with 5% fetal bovine serum (Gibco), penicillin (100 U/mL)—streptomycin (100 μg/mL) (Gibco, Cat. No. 15140-122), 2 mM L-glutamine (Gibco, 200 mM solution, Cat. No. 25030081), and 1 mM sodium pyruvate (Gibco, 100 mM solution, Cat. No. 11360070) at 37° C. in a humidified incubator that was maintained at 5% CO2.
(§2) The MTT assay measures cellular metabolic activity as a proxy for cell viability and involves the conversion of the water-soluble yellow dye MTT [3-(4,5-dimethylthiazol-2-yl)-2,5-diphenyltetrazolium bromide] into an insoluble purple formazan by the action of mitochondrial reductase. Formazan is then solubilized and its concentration is determined by measuring the optical density (OD) value at a wavelength of 570 nm. The value is in proportional to the number of live cells with excellent linearity up to ˜10^6 cells per well. The MTT assay was used to determine the EC50 value, the concentration of a compound that leads to 50% inhibition of cellular proliferation. Briefly, cells were split when growing to the mid-Log phase. Cells in 100 μL of culture medium were seeded into each well of 96-well microplates and cultivated for 15-24 hours to reach a confluence of 20-30% and were then exposed to drugs at concentrations ranging from 1 nM to 30 μM. At the endpoint, 20 μL of a MTT stock solution in DMSO (5 mg/mL) was added to each well that contains 100 μL of DMEM. The microplates were left in the cell culture incubator for 3-4 h before subjected to solubilization and determination of formazan at A570 in a microplate reader (BioTek ELX808iu). […] Therefore, these compounds might hold a broad utility in the treatment of a large variety of human malignancies.

SW480 [2] = assay: MTT assay of cellular proliferation; conditions: Homo sapiens, 50% inhibition of cellular proliferation
Protocol: as §1, §2

T2 HCC [3] = assay: MTT assay of cellular proliferation; conditions: Mus musculus, 50% inhibition of cellular proliferation
Protocol: as §1, §2

A549 [4] = assay: MTT assay of cellular proliferation; conditions: Homo sapiens, 50% inhibition of cellular proliferation
Protocol: as §1, §2

NCI-N87 [5] = assay: MTT assay of cellular proliferation; conditions: Homo sapiens, 50% inhibition of cellular proliferation
Protocol: as §1, §2

NCI-H23 [6] = assay: MTT assay of cellular proliferation; conditions: Homo sapiens, 50% inhibition of cellular proliferation
Protocol: as §1, §2

HCT116 [7] = assay: MTT assay of cellular proliferation; conditions: Homo sapiens, HCT-116, 50% inhibition of cellular proliferation
Protocol: as §1, §2

Hela [8] = assay: MTT assay of cellular proliferation; conditions: Homo sapiens, 50% inhibition of cellular proliferation
Protocol: as §1, §2

NCI-N87 [9] = assay: MECP in cancer cell line; conditions: Homo sapiens
Protocol: as §1, with “CO2. […]” for “CO2.”

NCI-H23 [10] = assay: MECP in cancer cell line; conditions: Homo sapiens
Protocol: as §1, with “CO2. […]” for “CO2.”

MDA-MB-231 [11] = assay: MECP in cancer cell line; conditions: Homo sapiens
Protocol: as §1
(§3) We have previously developed a mechanism-informed phenotypic screening assay to identify novel antimitotic agents. Equipped with a prior understanding of the versatile functions of the chromosomal passenger protein (CPP) complex in orchestrating karyokinesis and cytokinesis, the screening assay is to score for phenotypes typically seen when the CPP complex is disabled. Specifically, the parameters for a positive hit are a temporary elevation of mitotic index (MI) at 24 hours of drug treatment and an accumulation of polyploid cells at 48 hours of drug treatment, indicative of mitotic arrest and cytokinetic failure respectively. These parameters exclude compounds that elicit only a prolonged arrest of cells in mitosis, a phenotype typically provoked by spindle toxins. The screening procedure is briefly summarized here. RPEMYC^H2B-GFP cells engineered to express a Histone 2B-EGFP fusion protein were passaged as batches of 96-well plates, 18-24 hours before exposure to the chemical compounds of the present disclosure at concentrations from 1 nM to 30 μM. At 24, 48 or 72 hours after initiation of treatment, cells were analyzed for either an arrest in mitosis or a change in DNA content by GE IN-Cell Analyzer 2000. As set forth in Table 2 below, a value of greater than or equal to 1 nM and less than or equal to 1.0 μM is marked “A”; a value greater than 1.00 μM and less than or equal to 10.0 μM is marked “B”; a value greater than 10.0 μM and less than or equal to 30.0 μM is marked “C”; and a value greater than 30.0 μM is marked “D.”

SW480 [12] = assay: MECP in cancer cell line; conditions: Homo sapiens
Protocol: as §1, §3

T2 HCC [13] = assay: MECP in cancer cell line; conditions: Mus musculus
Protocol: as §1, §3

A549 [14] = assay: MECP in cancer cell line; conditions: Homo sapiens
Protocol: as §1, §3

HCT116 [15] = assay: MECP in cancer cell line; conditions: Homo sapiens, HCT-116
Protocol: as §1, §3

Hela [16] = assay: MECP in cancer cell line; conditions: Homo sapiens
Protocol: as §1, §3

RPEMYC^H2B-GFP cells = assay: Phenotypic screening assay (mitotic arrest, polyploidy); conditions: 1 nM to 30 μM; for IC50: read-out: Proliferative arrest (>50%)
Method in brief: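 RPE cells expressing MYC and H2B-EGFP treated with compound at 1 nM–30 μM; mitotic index scored at 24 h and polyploidy (DNA content) at 48 h by automated imaging, with reads at 24, 48 or 72 h. Hits show transient mitotic arrest followed by polyploid accumulation.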

[17] = read-out: Min. Effective conc. for Polyploidy (≥5%)

Compound	EC50 (MDA-MB-231 [1])	EC50 (SW480 [2])	EC50 (T2 HCC [3])	EC50 (A549 [4])	EC50 (NCI-N87 [5])	EC50 (NCI-H23 [6])	EC50 (HCT116 [7])	EC50 (Hela [8])	minimal effective concentration (NCI-N87 [9])	minimal effective concentration (NCI-H23 [10])	minimal effective concentration (MDA-MB-231 [11])	minimal effective concentration (SW480 [12])	minimal effective concentration (T2 HCC [13])	minimal effective concentration (A549 [14])	minimal effective concentration (HCT116 [15])	minimal effective concentration (Hela [16])	Min. Effective conc. for Polyploidy (≥5%) (RPEMYC^H2B-GFP cells)	minimal effective concentration (RPEMYC^H2B-GFP cells; [17])	minimal effective concentration (RPEMYC^H2B-GFP cells; read-out: Mitotic Arrest (≥5%))	IC50 (RPEMYC^H2B-GFP cells)	other results
COc1cc(NC(C)=O)cc(Oc2ccnc3cc(OC)c(OC)cc23)c1 [Compound 27, N-(3-((6,7-dimethoxyquinolin-4-yl)oxy)-5-methoxyphenyl)acetamide]	0.001 to 1 µM	0.001 to 1 µM	0.001 to 1 µM	0.001 to 1 µM	0.001 to 1 µM	0.001 to 1 µM	0.001 to 1 µM	0.001 to 1 µM	0.001 to 1 µM	0.001 to 1 µM	0.001 to 1 µM	0.001 to 1 µM	0.001 to 1 µM	0.001 to 1 µM	0.001 to 1 µM	0.001 to 1 µM	B (a value greater than 1.00 μM and less than or equal to 10.0 μM)	0.001 to 1 µM	0.001 to 1 µM	0.001 to 1 µM	Mitotic Arrest (≥5%) (RPEMYC^H2B-GFP cells): B (a value greater than 1.00 μM and less than or equal to 10.0 μM); Proliferative arrest (>50%) (RPEMYC^H2B-GFP cells): B (a value greater than 1.00 μM and less than or equal to 10.0 μM); Along with Cell Death (RPEMYC^H2B-GFP cells; listed as 23): B (a value greater than 1.00 μM and less than or equal to 10.0 μM)
COc1cc(Oc2ccnc3cc(OC)c(C(N)=O)cc23)cc(-n2cccn2)c1 [Compound 30, 7-methoxy-4-(3-methoxy-5-(1H-pyrazol-1-yl)phenoxy)quinoline-6-carboxamide]	0.001 to 1 µM	0.001 to 1 µM	0.001 to 1 µM	0.001 to 1 µM	0.001 to 1 µM	0.001 to 1 µM	0.001 to 1 µM	0.001 to 1 µM	0.001 to 1 µM	0.001 to 1 µM	0.001 to 1 µM	0.001 to 1 µM	0.001 to 1 µM	0.001 to 1 µM	0.001 to 1 µM	0.001 to 1 µM	D (a value greater than 30.0 μM)	0.001 to 1 µM	0.001 to 1 µM	0.001 to 1 µM	Mitotic Arrest (≥5%) (RPEMYC^H2B-GFP cells): D (a value greater than 30.0 μM); Proliferative arrest (>50%) (RPEMYC^H2B-GFP cells): D (a value greater than 30.0 μM); Along with Cell Death (RPEMYC^H2B-GFP cells; listed as 25): D (a value greater than 30.0 μM)
COC(=O)c1cc2c(Oc3cc(OC)cc(-n4cccn4)c3)ccnc2cc1OC [Compound 32, methyl 7-methoxy-4-(3-methoxy-5-(1H-pyrazol-1-yl)phenoxy)quinoline-6-carboxylate]	0.001 to 1 µM	1 to 10 µM	1 to 10 µM	1 to 10 µM	1 to 10 µM	0.001 to 1 µM	1 to 10 µM	0.001 to 1 µM	1 to 10 µM	0.001 to 1 µM	1 to 10 µM	0.001 to 1 µM	0.001 to 1 µM	0.001 to 1 µM	0.001 to 1 µM	0.001 to 1 µM		0.001 to 1 µM	0.001 to 1 µM	0.001 to 1 µM	

From patent US20240239806A1, “COMPOUNDS, COMPOSITIONS AND METHODS OF TREATING DISORDERS” (Chengdu Anticancer Bioscience, Ltd., priority 2021, published 2024)
